Data published in ChEMBL document CHEMBL5465560, “Selectivity Literature for EUbOPEN Chemogenomic Library” (2024).

What was measured:
[1] = target: Hepatocyte growth factor receptor (Homo sapiens, UniProt P08581); conditions: at 10 µM
[2] = target: Serine/threonine-protein kinase OSR1 (Homo sapiens) (UniProt O95747); test: Selectivity interaction (Kinase panel (DSF assay)) EUB0001559a OXSR1
[3] = target: Citron Rho-interacting kinase (Homo sapiens) (UniProt O14578); test: Selectivity interaction (KinomeScan (DiscoverX)) EUB0000045b CIT
Sequence of Citron Rho-interacting kinase (Homo sapiens) (O14578 whole entry): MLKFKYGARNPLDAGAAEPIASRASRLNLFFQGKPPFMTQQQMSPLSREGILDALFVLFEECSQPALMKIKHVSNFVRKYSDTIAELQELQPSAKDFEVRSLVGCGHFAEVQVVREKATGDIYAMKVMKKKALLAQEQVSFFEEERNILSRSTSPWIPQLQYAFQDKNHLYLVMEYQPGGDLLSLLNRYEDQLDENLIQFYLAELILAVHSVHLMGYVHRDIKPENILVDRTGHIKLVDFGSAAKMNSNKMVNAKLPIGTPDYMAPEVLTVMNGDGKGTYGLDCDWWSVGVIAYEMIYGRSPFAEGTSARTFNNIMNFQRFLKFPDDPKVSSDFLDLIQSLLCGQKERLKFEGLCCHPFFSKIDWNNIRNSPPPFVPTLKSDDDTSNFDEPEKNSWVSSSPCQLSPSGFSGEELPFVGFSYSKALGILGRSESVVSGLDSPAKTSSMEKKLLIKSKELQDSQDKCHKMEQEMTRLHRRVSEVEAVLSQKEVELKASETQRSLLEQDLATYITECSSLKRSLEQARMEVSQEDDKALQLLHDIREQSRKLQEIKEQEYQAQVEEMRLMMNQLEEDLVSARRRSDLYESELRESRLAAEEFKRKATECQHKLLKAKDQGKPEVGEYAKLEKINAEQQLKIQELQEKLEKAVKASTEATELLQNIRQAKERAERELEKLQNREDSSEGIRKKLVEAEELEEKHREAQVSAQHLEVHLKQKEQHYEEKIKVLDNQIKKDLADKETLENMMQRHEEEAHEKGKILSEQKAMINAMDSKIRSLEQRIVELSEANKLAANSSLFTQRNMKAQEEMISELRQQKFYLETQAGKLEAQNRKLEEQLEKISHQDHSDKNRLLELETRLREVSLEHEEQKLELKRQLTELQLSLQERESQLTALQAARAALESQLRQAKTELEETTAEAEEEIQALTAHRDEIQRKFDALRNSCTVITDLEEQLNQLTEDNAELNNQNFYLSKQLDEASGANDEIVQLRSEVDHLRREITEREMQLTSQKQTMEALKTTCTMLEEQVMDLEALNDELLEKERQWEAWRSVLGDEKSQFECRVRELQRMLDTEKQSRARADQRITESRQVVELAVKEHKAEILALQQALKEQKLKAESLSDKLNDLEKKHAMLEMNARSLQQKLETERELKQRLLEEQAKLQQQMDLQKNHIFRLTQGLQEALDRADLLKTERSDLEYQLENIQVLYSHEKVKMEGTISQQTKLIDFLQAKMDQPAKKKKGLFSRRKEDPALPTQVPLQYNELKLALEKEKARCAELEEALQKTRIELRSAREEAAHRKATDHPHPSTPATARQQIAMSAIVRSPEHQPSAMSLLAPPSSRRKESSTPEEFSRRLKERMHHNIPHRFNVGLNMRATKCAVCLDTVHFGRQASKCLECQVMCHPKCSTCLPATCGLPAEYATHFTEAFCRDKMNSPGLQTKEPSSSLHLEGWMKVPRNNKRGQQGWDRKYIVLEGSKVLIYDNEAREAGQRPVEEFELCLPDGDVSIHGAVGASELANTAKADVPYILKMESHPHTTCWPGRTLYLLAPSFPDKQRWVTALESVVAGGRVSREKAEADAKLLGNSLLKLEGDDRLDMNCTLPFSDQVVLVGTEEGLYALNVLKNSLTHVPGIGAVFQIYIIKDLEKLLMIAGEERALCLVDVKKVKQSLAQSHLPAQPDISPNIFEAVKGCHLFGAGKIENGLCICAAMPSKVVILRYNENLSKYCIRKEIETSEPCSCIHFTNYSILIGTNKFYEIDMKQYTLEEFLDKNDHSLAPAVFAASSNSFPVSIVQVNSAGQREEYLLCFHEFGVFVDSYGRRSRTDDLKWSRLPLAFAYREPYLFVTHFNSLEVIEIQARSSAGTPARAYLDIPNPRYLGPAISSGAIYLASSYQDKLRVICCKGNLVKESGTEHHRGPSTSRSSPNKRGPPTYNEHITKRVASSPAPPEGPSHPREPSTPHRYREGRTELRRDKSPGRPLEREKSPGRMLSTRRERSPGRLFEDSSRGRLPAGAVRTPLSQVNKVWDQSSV

[4] = target: Serine/threonine-protein kinase VRK2 (Homo sapiens) (UniProt Q86Y07); test: Selectivity interaction (KinomeScan (DiscoverX)) EUB0001079a VRK2; conditions: at 1 µM
[5] = target: T1, Membrane-associated tyrosine- and threonine-specific cdc2-inhibitory kinase (Homo sapiens) (UniProt Q99640); conditions: at 10 µM
T1 sequence (whole entry): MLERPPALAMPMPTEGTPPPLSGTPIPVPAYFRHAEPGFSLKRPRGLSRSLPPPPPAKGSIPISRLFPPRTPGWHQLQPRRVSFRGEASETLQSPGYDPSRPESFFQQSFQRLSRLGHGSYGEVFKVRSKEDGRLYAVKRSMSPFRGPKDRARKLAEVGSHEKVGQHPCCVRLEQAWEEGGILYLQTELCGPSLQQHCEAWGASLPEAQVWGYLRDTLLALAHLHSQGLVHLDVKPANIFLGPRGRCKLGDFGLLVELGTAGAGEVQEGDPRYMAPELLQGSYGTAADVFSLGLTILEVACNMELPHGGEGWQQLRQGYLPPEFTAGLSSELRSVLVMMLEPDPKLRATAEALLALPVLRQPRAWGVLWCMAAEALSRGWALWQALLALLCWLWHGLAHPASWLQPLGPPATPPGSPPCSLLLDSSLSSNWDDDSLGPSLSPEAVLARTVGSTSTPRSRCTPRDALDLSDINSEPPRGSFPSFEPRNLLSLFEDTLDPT

[6] = target: Serine/threonine-protein kinase ICK (Homo sapiens, UniProt Q9UPZ9); test: Selectivity interaction (Kinase panel (Invitrogen, enzymatic assay)) EUB0000162b ICK
[7] = target: Receptor tyrosine-protein kinase erbB-3 (Homo sapiens) (UniProt P21860); test: Selectivity interaction (KinomeScan (DiscoverX)) EUB0001049a ERBB3; conditions: at 1 µM
Sequence of Receptor tyrosine-protein kinase erbB-3 (Homo sapiens) (P21860 whole entry): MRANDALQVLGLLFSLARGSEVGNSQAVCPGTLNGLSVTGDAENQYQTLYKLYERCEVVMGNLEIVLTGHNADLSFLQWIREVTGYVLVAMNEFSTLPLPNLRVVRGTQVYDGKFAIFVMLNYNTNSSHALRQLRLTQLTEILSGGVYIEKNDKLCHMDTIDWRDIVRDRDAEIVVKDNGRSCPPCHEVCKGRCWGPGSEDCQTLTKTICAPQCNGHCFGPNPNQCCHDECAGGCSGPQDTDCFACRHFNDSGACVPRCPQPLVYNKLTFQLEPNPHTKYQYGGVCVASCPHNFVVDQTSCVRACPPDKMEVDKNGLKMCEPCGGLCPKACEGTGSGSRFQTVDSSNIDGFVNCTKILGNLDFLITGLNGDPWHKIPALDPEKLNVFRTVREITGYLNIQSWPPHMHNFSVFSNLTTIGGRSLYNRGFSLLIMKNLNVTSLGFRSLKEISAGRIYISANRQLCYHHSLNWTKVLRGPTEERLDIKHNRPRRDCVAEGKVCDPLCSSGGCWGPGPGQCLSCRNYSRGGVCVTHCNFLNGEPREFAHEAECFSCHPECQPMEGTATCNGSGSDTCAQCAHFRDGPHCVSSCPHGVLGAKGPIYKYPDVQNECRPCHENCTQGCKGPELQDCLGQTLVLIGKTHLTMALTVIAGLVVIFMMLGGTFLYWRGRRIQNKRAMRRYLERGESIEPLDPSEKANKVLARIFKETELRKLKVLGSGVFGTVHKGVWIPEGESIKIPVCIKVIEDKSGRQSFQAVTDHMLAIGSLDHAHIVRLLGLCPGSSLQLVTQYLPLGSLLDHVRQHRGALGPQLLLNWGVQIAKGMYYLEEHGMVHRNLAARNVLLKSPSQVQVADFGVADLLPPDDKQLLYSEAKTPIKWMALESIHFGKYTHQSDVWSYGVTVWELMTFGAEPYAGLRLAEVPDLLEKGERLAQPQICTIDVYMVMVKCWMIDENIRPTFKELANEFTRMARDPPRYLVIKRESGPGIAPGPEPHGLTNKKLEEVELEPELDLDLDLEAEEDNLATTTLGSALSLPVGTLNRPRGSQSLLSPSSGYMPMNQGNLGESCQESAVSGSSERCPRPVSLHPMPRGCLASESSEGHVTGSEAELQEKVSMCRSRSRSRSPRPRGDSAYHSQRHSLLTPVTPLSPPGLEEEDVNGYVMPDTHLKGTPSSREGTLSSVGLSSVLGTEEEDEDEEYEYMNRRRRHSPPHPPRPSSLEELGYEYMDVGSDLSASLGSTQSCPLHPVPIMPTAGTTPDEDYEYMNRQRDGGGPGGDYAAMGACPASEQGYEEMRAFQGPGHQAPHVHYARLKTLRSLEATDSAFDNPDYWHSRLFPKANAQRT

[8] = target: Fibroblast growth factor receptor 1 (Homo sapiens, UniProt P11362); test: Selectivity interaction (Upstate Kinase Profiler service (Millipore)) EUB0000056c FGFR1; conditions: at 1 µM
Sequence of Fibroblast growth factor receptor 1 (P11362 22-822 limits assumed): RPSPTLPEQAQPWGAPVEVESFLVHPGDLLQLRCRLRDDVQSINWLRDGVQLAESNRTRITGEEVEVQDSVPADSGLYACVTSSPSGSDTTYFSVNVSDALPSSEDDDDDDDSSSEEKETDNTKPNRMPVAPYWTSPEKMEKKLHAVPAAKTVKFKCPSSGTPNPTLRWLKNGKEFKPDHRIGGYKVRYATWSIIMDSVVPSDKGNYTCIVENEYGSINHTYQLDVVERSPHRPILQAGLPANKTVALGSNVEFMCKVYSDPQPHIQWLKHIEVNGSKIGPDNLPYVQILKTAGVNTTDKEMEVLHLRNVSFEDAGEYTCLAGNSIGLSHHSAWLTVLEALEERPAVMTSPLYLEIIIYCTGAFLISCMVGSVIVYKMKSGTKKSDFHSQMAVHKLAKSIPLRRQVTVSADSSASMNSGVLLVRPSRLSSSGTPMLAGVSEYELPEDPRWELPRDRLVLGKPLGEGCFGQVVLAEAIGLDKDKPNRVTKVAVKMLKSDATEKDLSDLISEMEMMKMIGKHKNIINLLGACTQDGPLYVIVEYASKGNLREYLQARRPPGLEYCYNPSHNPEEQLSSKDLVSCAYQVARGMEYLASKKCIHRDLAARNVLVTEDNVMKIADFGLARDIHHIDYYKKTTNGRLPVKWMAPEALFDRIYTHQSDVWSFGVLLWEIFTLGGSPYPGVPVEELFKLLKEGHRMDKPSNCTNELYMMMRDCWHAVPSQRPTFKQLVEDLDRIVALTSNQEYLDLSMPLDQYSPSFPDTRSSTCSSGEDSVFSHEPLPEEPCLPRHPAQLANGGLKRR

[9] = target: Serine/threonine-protein kinase SMG1 (Homo sapiens) (UniProt Q96Q15); test: Selectivity interaction (ActivX KiNativ screen (ex vivo kinase selectivity in human PBMCs)) EUB0001619a SMG1; format: cell-based; conditions: PBMC, at 1 µM
[10] = target: Serine/threonine-protein kinase 38-like (Homo sapiens) (UniProt Q9Y2H1); test: Selectivity interaction (KinomeScan (DiscoverX)) EUB0001619a STK38L; conditions: at 1 µM
Sequence of Serine/threonine-protein kinase 38-like (Homo sapiens) (Q9Y2H1 2-464 limits assumed): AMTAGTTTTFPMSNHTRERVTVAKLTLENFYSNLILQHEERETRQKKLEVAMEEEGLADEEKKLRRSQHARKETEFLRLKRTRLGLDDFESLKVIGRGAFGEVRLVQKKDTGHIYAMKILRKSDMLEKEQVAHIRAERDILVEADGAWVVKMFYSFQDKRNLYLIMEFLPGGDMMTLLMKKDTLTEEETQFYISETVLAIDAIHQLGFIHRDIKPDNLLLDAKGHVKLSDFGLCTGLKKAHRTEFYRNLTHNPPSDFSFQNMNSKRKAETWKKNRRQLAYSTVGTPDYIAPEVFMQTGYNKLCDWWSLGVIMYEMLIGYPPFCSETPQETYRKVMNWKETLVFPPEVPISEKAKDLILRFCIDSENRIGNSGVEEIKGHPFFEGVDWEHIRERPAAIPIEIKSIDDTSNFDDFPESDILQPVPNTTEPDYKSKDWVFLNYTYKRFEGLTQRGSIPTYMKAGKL

[11] = target: Calcium/calmodulin-dependent protein kinase kinase 1 (Homo sapiens) (UniProt Q8N5S9); test: Selectivity interaction (KinomeScan (DiscoverX)) EUB0001619a CAMKK1; conditions: at 1 µM
[12] = target: Serine/threonine-protein kinase MARK2 (Homo sapiens) (UniProt Q7KZI7); test: Selectivity interaction (ActivX KiNativ screen (kinase selectivity in THP-1 cell lysates)) EUB0000639a MARK2; format: subcellular; conditions: lysate, at 0.2 µM
[13] = target: T2, Serine/threonine-protein kinase 36 (Homo sapiens) (UniProt Q9NRP7); test: Selectivity interaction (Ambit KINOMEscan and KiNATiv profiling in Jurkat cells) EUB0000090b STK36; format: cell-based; conditions: at 1 µM
T2 sequence (whole entry): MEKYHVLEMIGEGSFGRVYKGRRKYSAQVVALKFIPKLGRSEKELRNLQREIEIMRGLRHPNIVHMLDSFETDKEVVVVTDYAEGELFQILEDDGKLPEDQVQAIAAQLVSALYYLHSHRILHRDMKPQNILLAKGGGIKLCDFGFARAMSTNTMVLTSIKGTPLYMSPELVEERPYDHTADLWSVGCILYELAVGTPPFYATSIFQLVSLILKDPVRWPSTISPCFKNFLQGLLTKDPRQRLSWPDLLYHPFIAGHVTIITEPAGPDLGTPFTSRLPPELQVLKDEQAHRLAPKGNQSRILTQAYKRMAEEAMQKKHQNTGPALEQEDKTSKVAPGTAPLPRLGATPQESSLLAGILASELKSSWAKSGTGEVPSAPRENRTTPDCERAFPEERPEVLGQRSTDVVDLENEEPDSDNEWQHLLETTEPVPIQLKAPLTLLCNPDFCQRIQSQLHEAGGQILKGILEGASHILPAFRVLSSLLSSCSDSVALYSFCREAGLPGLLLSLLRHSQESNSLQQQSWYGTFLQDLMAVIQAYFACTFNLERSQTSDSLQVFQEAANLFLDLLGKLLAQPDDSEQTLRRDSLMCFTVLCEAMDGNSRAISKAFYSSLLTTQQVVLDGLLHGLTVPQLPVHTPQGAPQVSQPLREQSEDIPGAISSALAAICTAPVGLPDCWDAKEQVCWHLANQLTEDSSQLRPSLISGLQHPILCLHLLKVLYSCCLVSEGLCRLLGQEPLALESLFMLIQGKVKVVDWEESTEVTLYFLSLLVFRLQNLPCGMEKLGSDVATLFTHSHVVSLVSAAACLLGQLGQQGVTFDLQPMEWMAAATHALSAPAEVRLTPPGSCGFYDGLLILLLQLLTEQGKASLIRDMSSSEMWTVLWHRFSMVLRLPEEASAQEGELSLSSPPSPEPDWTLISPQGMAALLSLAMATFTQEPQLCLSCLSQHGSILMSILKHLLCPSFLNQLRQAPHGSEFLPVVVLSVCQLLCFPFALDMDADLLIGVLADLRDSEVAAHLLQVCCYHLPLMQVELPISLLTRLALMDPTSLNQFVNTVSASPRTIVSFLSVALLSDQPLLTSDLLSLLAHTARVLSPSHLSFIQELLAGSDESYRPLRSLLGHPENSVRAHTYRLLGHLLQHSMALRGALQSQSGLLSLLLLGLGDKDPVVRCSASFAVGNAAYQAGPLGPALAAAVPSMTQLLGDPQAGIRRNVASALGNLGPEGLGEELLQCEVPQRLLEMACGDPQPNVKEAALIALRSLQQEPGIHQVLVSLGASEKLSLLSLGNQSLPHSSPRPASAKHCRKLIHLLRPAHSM

Compound COCC(=O)NC/C=C/c1ccc2ncnc(Nc3ccc(Oc4ccc(C)nc4)c(C)c3)c2c1 [CP-724714] has a % of control [1] of 74%.

In the case of CN(C(=O)c1cnn2cccnc12)c1cc2c(cc1N1CCOCC1)C(=O)N(C[C@@H](F)C(C)(C)O)C2, the dTM [2] is reported as 0.3 K.

C=CC(=O)Nc1cc(-n2c(=O)ccc3cnc4ccc(-c5ccc(NS(C)(=O)=O)cc5)cc4c32)ccc1C showed a % of control ([3]; at 1 µM) of 83% and a % of control ([3]; at 10 µM) of 53%.

For Nc1cnc(N2CCc3cc(S(=O)(=O)Nc4c(F)cc(Cl)cc4F)cc(N4CCCC4=O)c32)nc1 [TP-020n], the % of control [4] was 100%.

For Cc1cc([C@@H](C)Nc2ccccc2C(=O)O)c2nc(N3CCOCC3)cc(=O)n2c1 [AZD-6482], the % of control [5] was 100%.

For CN(C)C(=O)Cn1cc(-c2ccc(-c3cncc4ccccc34)cc2)cn1, the IC50 [6] was 2.39 µM.

For COc1cc(Nc2nc(C)cc(-c3cnn4nc(OC)ccc34)n2)cc(C(F)(F)F)c1, the % of control [7] was 100%.

With Cc1ccc(-c2ccc3c(ccc4sc5c(c43)NC[C@@H](C)NC5=O)n2)cn1 the % of inhibition [8] was 3%.

For N#Cc1cccc(-c2c[nH]c3ncnc(N4CCOCC4)c23)c1, the % of inhibition [9] was 13%, the % of control [10] was 100% and the % of control [11] was 100%.

In the case of CC[C@@H]1[C@H](F)C(=O)N[C@@H]1COc1nccc2cc(C(N)=O)c(OC)cc12 [ZIMLOVISERTIB], the % of inhibition [12] is reported as 8.4%.

CN(C)C/C=C/C(=O)Nc1ccc(C(=O)N2CCCC(Nc3ncc(Cl)c(-c4c[nH]c5ccccc45)n3)C2)cc1 (centres undefined) showed a % of control [13] of 85%.
